The term melting point denotes the temperature, or range, at which the solid turns liquid.

Drawing on a melting point compilation (Tetko et al.; mined from patent text by program, amines drawn as free bases though some values may be those of a salt), this text covers melting point for 84 compounds.

The structures appear in SMILES notation.

Take `Cc1ccc(S(=O)(=O)NC(COS(=O)(=O)c2ccc(C)cc2)Cc2ccccc2)cc1` (centres undefined): the melting point lay within 95 to 96 °C.

With `O=C(O)c1cccc(NCCOCc2ccccc2)c1C(=O)O`, the melting point fell in the range of 158 to 160 °C. `COc1cc(OC)nc(Oc2cccc(Oc3ccccc3)c2C(=O)O)n1` showed a melting point of 116 to 118 °C.

Consider `CC(C)(C)c1cc(CC(C)(C)[N+](=O)[O-])cc(C(C)(C)C)c1O`, for which the melting point was in the range of 101 to 104 °C. Consider `CSC(=NCCSCc1ccc(CN(C)C)o1)NC#N`, for which the melting point was 78 to 79 °C.

`CC1CC(=O)NN=C1c1ccc(NC(=O)Oc2ccc([N+](=O)[O-])cc2)cc1` (centres undefined) showed a melting point of 177 to 178 °C. The compound `CCOc1nn(-c2ccc(C(F)(F)F)cn2)cc1CCCOc1cc(CCC(=O)O)cc(OC)c1` showed a melting point of 99 to 100 °C. `CCOC(=O)c1ccc2cccc([N+](=O)[O-])c2c1` showed a melting point of 120 °C. The value for `NC(C(=O)O)c1ccc(C(=O)O)c(O)c1CCCc1ccccc1` (centres undefined) was over 250 °C. As for `COc1cccc(NC(=O)NCc2ccc(Nc3n[nH]c4ncnc(Nc5cccc(Cl)c5)c34)cc2)c1`, the melting point is 157 to 160 °C. In the case of `CCC1(CC)c2cc(-c3nc4ccccc4s3)ccc2-c2ccc(N(c3cccc(Oc4ccc([N+](=O)[O-])cc4)c3)c3cccc(Oc4ccc([N+](=O)[O-])cc4)c3)cc21` it was 200 to 201 °C.

Consider `COC(=O)C(C)(C)CCCOc1cc(C)c(NS(=O)(=O)c2ccc(OC)cc2)cc1C`, for which the melting point was 90 to 92 °C. On to `CCOC(=O)c1ccc(NCCCCCCCCCCCCCC[Si](C)(C)C)cc1`, for which the melting point fell in the range of 91 to 92 °C. On to `CCC(C)COc1ccc(N=Nc2ccc(F)cc2)cc1` (centres undefined), for which the melting point was in the range of 64.3 to 65 °C. On to `O=C(O)CCCOc1cccc(CCNC(=O)C2Cc3ccccc3N2S(=O)(=O)c2ccc(-c3cccc(C(F)(F)F)c3)cc2)c1` (centres undefined), for which the melting point is 70 °C. In turn, `Cc1ccc2cc(-c3cccc4ccccc34)nc(Cl)c2c1` yielded a melting point of 93 °C. For the compound `CCOC(=Cc1ccc(-c2cccc(N(C)C(=O)Nc3ccc(C)cc3)c2)cc1)C(=O)O`, the melting point is 92 °C. The compound `CCCCNC(=O)NS(=O)(=O)c1c(Cl)cccc1S(=O)(=O)N(C)C` registered a melting point of 107 to 115 °C. In the case of `CC1(C)Oc2ccc(C#N)cc2C(n2ccccc2=O)C1=O` (centres undefined) it was 178 °C; in that of `Cn1c(C(=O)NC(CF)Cc2ccccc2)cc2c(O)cccc21` (centres undefined), 161 to 162 °C. The value for `CC1(C)c2ccc(C(O)CN3CCN(c4n[nH]c5ccccc45)CC3)cc2C(C)(C)C1O` (centres undefined) was 104 to 110 °C. `Cc1nc(-c2cccc(C(=O)c3ccccc3)c2)sc1C(=O)O` had a melting point of 213 to 215 °C. `CC1(C)C(=O)C(C)(C)c2cc(C(O)CN3CCN(c4nsc5ccccc45)CC3)ccc21` (centres undefined) displayed a melting point of 189 to 191 °C. In the case of `COc1ncc(C=C2SC(=S)N(CC(=O)O)C2=O)cc1-c1cc2c(cc1C)C(C)(C)CCC2(C)C` it was 253 to 255 °C; in that of `CCCCCCCCCCCCCCCCSCC1(CNS(=O)(=O)CCCCl)CCCO1` (centres undefined), 44.5 to 45.5 °C. Consider `CCCc1nc2ccccc2n1Cc1ccc(C2=C(C(=O)O)CCC2)cc1`, for which the melting point fell in the range of 224 to 226 °C.

For `O=C(O)C[C@]1(O)C[C@H](CCCCCCc2ccc(C(F)(F)F)cc2C(F)(F)F)OC1=O` (relative stereo), the melting point is 70 to 73 °C. With `CCCCC[C@H]1CC[C@H](c2ccc(-c3ccc(CO)cc3)cc2)CC1`, the melting point came out at 180 °C. `O=C1CC2(CCCC2)C1(Cl)CC(Cl)(Cl)Cl` (centres undefined) yielded a melting point of 70 to 73 °C. The compound `COc1ccc(C(=C(c2ccccc2)C(F)(F)F)c2ccc(F)cc2)cc1` registered a melting point of 52 to 56 °C.

With `CCCCCCCCCCCCc1cc2cc(C(=O)OCC)ccc2[nH]1`, the melting point is 77 to 79 °C. In the case of `O=C1c2cccc(NC(=S)Nc3ccccn3)c2C2CCCCN12` (centres undefined) it was 195 °C; in that of `CC1=C(C(=O)O)C(c2cccc([N+](=O)[O-])c2)N(C(=O)N(C)C)C(=O)N1` (centres undefined), 193 to 195 °C. The compound `CNC1CCCN(c2ccc3c(NC(=O)CC4CCCCC4)c(Cl)ccc3n2)C1` (centres undefined) showed a melting point of 158 to 159 °C. `COc1nc(C)cnc1N` displayed a melting point of 75 to 76.5 °C.

Take `O=C(OCc1ccccc1)c1cc2cc([N+](=O)[O-])ccc2[nH]1`: the melting point amounted to 192 °C. The value for `Cc1ncc2c(n1)-c1ccccc1N(C(=O)c1ccc([N+](=O)[O-])cc1)CC2` was 211 to 212 °C; that for `CCc1nc2c(N)nc3ccccc3c2n1CCOCCN` was 144 to 146 °C; that for `Cc1cc(N(C)Cc2ccc(-c3ccc(OC(F)(F)F)cc3)nc2)ccc1OCC(=O)O` was 137 to 138 °C. For the compound `O=C(Nc1cc(C(F)(F)F)ccc1N1CCOCC1)c1ccncc1`, the melting point lay within 172 to 173 °C. Turning to `Nc1ccc(Oc2c(N3CCCC3)cc(C(=O)O)cc2S(N)(=O)=O)cc1`, the melting point was 234 to 240 °C. The compound `CCCCC(Cc1cccnc1)(C(=O)OC(C)(C)C)S(=O)(=O)c1ccc(OC)cc1` (centres undefined) showed a melting point of 10 °C. Consider `c1ccc(C(CCCc2c[nH]cn2)c2ccccc2)cc1`, for which the melting point was in the range of 204 to 206 °C.

In the case of `Cc1c([N+](=O)[O-])cnc(Oc2ccc(Cl)c(C(F)(F)F)c2)c1Br`, the melting point was 73 to 74 °C. In the case of `O=C1CC(c2ccc(Cl)cc2)Oc2ccccc21` (centres undefined), the melting point is 96 to 98 °C. `O=C1c2cccc(NCCc3ccccc3)c2C(=O)c2cccc(NCCc3ccccc3)c21` yielded a melting point of 205 to 207 °C.

For `CCOc1cc(N)c(Cl)cc1C(=O)NC[C@H]1CN(CC2CCN(C(=O)N(C)OC)CC2)CCO1`, the melting point lay within 127 to 129 °C. The value for `CC(C)(C)c1csc(C(C#N)=C(O)c2c(F)cccc2F)n1` was 207 to 209 °C; that for `CC(C)(C)OC(=O)CN(C(=O)OC(C)(C)C)[C@H](CC1CCCCC1)C(=O)N1CCC[C@H]1C(=O)NC1CCc2nc(N)sc2C1` (some centres undefined) was 95 to 101 °C; that for `COC(=O)c1nc2c(c(SC)nn2-c2ccccc2)c(N)c1C(=O)OC` was 120 to 122 °C. `S=C1C[C@@H](SCc2ccccc2)CN1`: the melting point lay within 86 to 88 °C.

`O=C(Oc1ccc(Oc2ccc(C(F)(F)F)cn2)cc1)N1CCS(=O)CC1` showed a melting point of 156 to 157 °C. The compound `CSC(=N[N+](=O)[O-])NC(C)=O` displayed a melting point of 109 to 110 °C.

`CCCC(=O)NCc1ccc(NC(=O)/C=C/c2cnn(C)c2-c2ccc(F)cc2)cc1`: the melting point fell in the range of 259 to 260 °C. In turn, `Cc1ccc(-c2[nH]c(-c3ccc(C(F)(F)F)cc3)nc2C(=O)Nc2nccs2)s1` yielded a melting point of 235 to 237 °C.

Consider `CCOC(=O)NN1CCN(CCCCC(=O)c2ccccc2)CC1`, for which the melting point is 105 to 106 °C. `CCCc1nn(CC)c(C(=O)O)c1Cc1ccc(-c2ccccc2NS(=O)(=O)C(F)(F)F)cc1` showed a melting point of 68 to 72 °C. `Cc1sc(-c2ccccc2)nc1COc1ccc(CO)cc1` had a melting point of 94 to 95 °C.

Turning to `COC(=O)Cc1ccc(OCCNC(=O)C2Cc3ccccc3N2S(=O)(=O)c2ccc(-c3ccc(C)cc3)c(C(F)(F)F)c2)cc1` (centres undefined), the melting point came to 60 °C. Take `COc1cc(C=C2C(=O)CCc3cc(OC)c(OC)cc32)c([N+](=O)[O-])cc1OC`: the melting point lay within 65 to 66 °C. In the case of `O=c1[nH]c2ccc(Cl)cc2n1CC1CCCCC1` it was 62 °C; in that of `O=C(O)COc1cc2cc(-c3ccccc3)sc2c(Cl)c1Cl`, 209 to 211 °C; in that of `CCCc1cc(O)nc(-c2ccncc2)n1`, 173 to 174 °C.

In the case of `CCOC(=O)OC1CCN(C(=O)OCC)Cc2cc3ccccc3nc21` (centres undefined), the melting point is under 40 °C. Consider `NNC(=O)C(F)(F)c1cccc(Cl)n1`, for which the melting point was 165 to 167 °C. For the compound `CC12CCC3C(CC4OC45CC(O)CCC35C)C1CCC2=O` (centres undefined), the melting point lay within 197 to 200 °C. `COc1ccc(C=N[C@H]2COc3c(F)ccc(OC)c3C2)cc1` showed a melting point of 96.8 to 97.3 °C. In the case of `COC(=O)C1=C(CC(=O)N2CCN(C)CC2)NC(CS(=O)c2ccccc2Cl)=C(C(=O)OC)C1c1c(Cl)cccc1Cl` (centres undefined) it was 180 to 181 °C; in that of `CC(C)(C)c1cc(CCC(=O)NCCNc2c(Cl)nc(Cl)c(Cl)c2C#N)cc(C(C)(C)C)c1O`, 150 to 160 °C; in that of `CC(=O)N1CCN(C(=S)Nc2cc3sc(C(C)(C)C)nc3cc2N2CCC(C)CC2)CC1`, 187 to 190 °C. Compound `CN(c1cccc2c(F)c(C3=NCC(CC(=O)O)S3)[nH]c12)S(=O)(=O)c1cccs1` (centres undefined) displayed a melting point of 213 to 214 °C. Compound `CC1(C)Oc2ccc(OC(F)F)cc2[C@@H](N2CCCCC2=O)[C@@H]1O` (relative stereo) registered a melting point of 165 °C. Compound `COc1ccc(CC(=O)N[C@H]2C[C@H](C(=O)O)Nc3cc(Cl)cc(Cl)c32)cc1` (relative stereo) registered a melting point of 245 to 247 °C. `COC(=O)CCc1oc(=O)[nH]c1-c1ccc(Cl)cc1` yielded a melting point of 147 to 148 °C. With `COc1c(C)cc2c(c1C)Cc1c-2[nH]c2c(C)cc(C)cc12`, the melting point turned out to be 210 °C.

The compound `COc1ccc(NC(=O)NCc2ccc3c(c2)CN(C2CCC(=O)NC2=O)C3=O)cc1` (centres undefined) showed a melting point of 255 to 257 °C. Compound `CC1(C)CCC[C@H](N2C(=O)c3ccccc3C2=O)C(=O)N1` registered a melting point of 193 to 194 °C. As to `CCn1c(-c2cc(OC)c(OC)cc2S(N)(=O)=O)cc(=Nc2c(C)cc(C)c(S(N)(=O)=O)c2C)n(C)c1=O`, the melting point was in the range of 173 to 178 °C. As for `CC(=O)c1cc(CC(C)O)c(OCCCCC#N)cc1O` (centres undefined), the melting point is 86 to 88 °C. In the case of `Cc1cc(C(=O)Nc2ccn3cc(-c4ccccc4)nc3n2)cc(Cl)n1` it was 148 to 151 °C; in that of `COC(=O)c1cc(C(=O)OC)cc(P(c2ccccc2)c2ccccc2)c1`, 103 to 104 °C; in that of `N#Cc1ccc(N2CCC(=O)CC2)nc1`, 171 to 173 °C. For the compound `O=c1[nH]c2ccc(-c3ncc[nH]3)cc2[nH]c1=O`, the melting point was over 300 °C.

`CCN(CC)CCC1CCN(C(=O)N2c3ccccc3C(=O)Nc3cccnc32)CC1` had a melting point of 154 °C.
